The supplement of paper PMC10307832

Legend:
Assay in all cases: relative viability (nuclei count vs DMSO), 5 days (fraction); higher = more cells survive
[1] = compound: CCc1cnn2c(NCc3ccc[n+]([O-])c3)cc(N3CCCC[C@H]3CCO)nc12 [Dinaciclib] + Cc1nc(Nc2ncc(C(=O)Nc3c(C)cccc3Cl)s2)cc(N2CCN(CCO)CC2)n1 [Dasatinib] (partner 0.075 µM)
How it was run: (§1)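 A single step with final 0.05% Triton X-100, 1% formaldehyde and 1 ug/ml Hoechst fixed the cells and stained nuclei 5 days after treatment. Lung cancer cell lines in 1536-well plates had been treated by pin tool the day after seeding with one drug alone or a fixed anchor-drug dose plus five library-drug doses (not always all listed) in √10 steps, and nuclei were counted on 4× images. Relative viability is the ratio of nuclei in treated wells to nuclei in vehicle wells, taken as the median of duplicate plates.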

[2] = compound: CCc1cnn2c(NCc3ccc[n+]([O-])c3)cc(N3CCCC[C@H]3CCO)nc12 [Dinaciclib] + Cc1cc(Nc2cc(N3CCN(C)CC3)nc(Sc3ccc(NC(=O)C4CC4)cc3)n2)n[nH]1 [Tozasertib] (partner 0.1 µM)
How it was run: as §1

[3] = compound: CCc1cnn2c(NCc3ccc[n+]([O-])c3)cc(N3CCCC[C@H]3CCO)nc12 [Dinaciclib] + CC1(C)CCC(c2ccc(Cl)cc2)=C(CN2CCN(c3ccc(C(=O)NS(=O)(=O)c4ccc(N[C@H](CCN5CCOCC5)CSc5ccccc5)c(S(=O)(=O)C(F)(F)F)c4)cc3)CC2)C1 [Navitoclax] (partner 0.5 µM)
How it was run: as §1

[4] = compound: CCc1cnn2c(NCc3ccc[n+]([O-])c3)cc(N3CCCC[C@H]3CCO)nc12 [Dinaciclib] + Nc1ncn([C@H]2C[C@H](O)[C@@H](CO)O2)c(=O)n1 [Decitabine] (partner 2 µM)
How it was run: as §1

[5] = compound: CCc1cnn2c(NCc3ccc[n+]([O-])c3)cc(N3CCCC[C@H]3CCO)nc12 [Dinaciclib] + COc1cc2c(Oc3ccc(NC(=O)C4(C(=O)Nc5ccc(F)cc5)CC4)cc3F)ccnc2cc1OCCCN1CCOCC1 [Foretinib] (partner 0.25 µM)
How it was run: as §1

Cell Line	relative viability ([1]; first compound 0.009487 µM)	relative viability ([1]; first compound 0.03 µM)	relative viability ([1]; first compound 0.09487 µM)	relative viability ([1]; first compound 0.3 µM)	relative viability ([2]; first compound 0.009487 µM)	relative viability ([2]; first compound 0.03 µM)	relative viability ([2]; first compound 0.09487 µM)	relative viability ([2]; first compound 0.3 µM)	relative viability ([3]; first compound 0.009487 µM)	relative viability ([3]; first compound 0.03 µM)	relative viability ([3]; first compound 0.09487 µM)	relative viability ([3]; first compound 0.3 µM)	relative viability ([4]; first compound 0.009487 µM)	relative viability ([4]; first compound 0.03 µM)	relative viability ([4]; first compound 0.09487 µM)	relative viability ([4]; first compound 0.3 µM)	relative viability ([5]; first compound 0.009487 µM)	relative viability ([5]; first compound 0.03 µM)	relative viability ([5]; first compound 0.09487 µM)	relative viability ([5]; first compound 0.3 µM)
LU99A	0.514	0.142	0.115	0.124	0.247	0.142	0.143	0.148	0.363	0.13	0.126	0.121	0.793	0.145	0.13	0.149	0.545	0.183	0.128	0.154
LXF-289	0.282	0.0717	0.0492	0.0472	0.183	0.149	0.0561	0.0572	0.921	0.189	0.0659	0.0645	0.356	0.293	0.109	0.0948	1.03	0.706	0.0732	0.0742
NCI-H23	0.647	0.249	0.0991	0.114	0.246	0.131	0.116	0.13	0.74	0.173	0.113	0.12	0.242	0.216	0.14	0.135	0.57	0.187	0.108	0.15
NCI-H322M	0.248	0.248	0.247	0.28	0.417	0.263	0.303	0.259	1.27	1.2	0.587	0.205	0.713	0.441	0.416	0.348	0.801	0.287	0.302	0.281
NCI-H441	0.562	0.186	0.146	0.144	0.603	0.223	0.23	0.175	0.655	0.11	0.135	0.128	0.223	0.199	0.134	0.147	0.789	0.204	0.174	0.222
NCI-H460	0.453	0.0263	0.0179	0.021	0.489	0.0458	0.015	0.0209	1.05	0.0119	0.0108	0.0098	0.232	0.0239	0.0139	0.0224	0.803	0.0417	0.0257	0.0233
NCI-H520	0.201	0.151	0.165	0.155	0.473	0.201	0.181	0.208	0.69	0.12	0.12	0.117	0.47	0.131	0.155	0.168	0.573	0.126	0.136	0.151
NCI-H596	0.675	0.643	0.232	0.178	0.853	0.456	0.176	0.164	0.872	0.276	0.0498	0.09	1.48	0.839	0.271	0.258	0.861	0.547	0.176	0.178
NCI-H647	0.104	0.0306	0.0319	0.042	0.21	0.0983	0.0486	0.0487	0.764	0.0454	0.0549	0.0648	0.296	0.131	0.0349	0.0773	0.687	0.221	0.0703	0.0856
NCI-H727	0.344	0.263	0.209	0.325	0.538	0.287	0.276	0.282	0.37	0.0912	0.0827	0.0949	0.916	0.37	0.413	0.373	1.05	0.283	0.259	0.249
NCI-H838	0.176	0.173	0.143	0.138	0.292	0.164	0.0965	0.0959	0.901	0.226	0.13	0.118	0.337	0.162	0.131	0.138	0.993	0.487	0.125	0.101
NCI-H1355	0.815	0.419	0.147	0.159	0.677	0.292	0.161	0.181	0.943	0.159	0.123	0.0999	0.364	0.321	0.174	0.157	1.12	0.268	0.148	0.166
NCI-H1395	0.411	0.289	0.268	0.228	0.782	0.301	0.24	0.239	1.06	0.263	0.299	0.267	0.649	0.286	0.286	0.251	1.18	0.335	0.269	0.252
NCI-H1437	0.411	0.102	0.103	0.0897	0.356	0.165	0.141	0.131	0.972	0.108	0.106	0.0962	0.405	0.194	0.182	0.197	1.06	0.564	0.184	0.15
NCI-H1650	0.197	0.171	0.179	0.133	0.363	0.176	0.119	0.147	1.17	0.144	0.0928	0.139	0.472	0.258	0.135	0.12	1.1	0.336	0.167	0.14
